Laboratory results: ChEMBL document CHEMBL4610065, “Isolation and Structural Characterization of Specific Bacterial β-Glucuronidase Inhibitors from Noni (Morinda citrifolia) Fruits” (J Nat Prod, 2020)
pIC50: −log10 of the molar value. Active and inactive are the calls of the source. The calls are words filed in the database; no cut-off is given here.

What was measured:
Rattus norvegicus [1] = species: Rattus norvegicus; assay: Inhibition of rat intestinal alpha-glucosidase at 0.5 mg/ml using pNPG as substrate preincubated for 3 mins followed by substrate addition and measured after 30 mins
[2] = molecular target: T1, Pancreatic triacylglycerol lipase (Sus scrofa, UniProt P00591); assay: Inhibition of porcine pancreatic lipase at 0.1 mg/ml using 4-MU oleate as substrate incubated for 30 min by fluorescence method relative to control; settings: pig, 0.5 h
T1 sequence (P00591 whole entry): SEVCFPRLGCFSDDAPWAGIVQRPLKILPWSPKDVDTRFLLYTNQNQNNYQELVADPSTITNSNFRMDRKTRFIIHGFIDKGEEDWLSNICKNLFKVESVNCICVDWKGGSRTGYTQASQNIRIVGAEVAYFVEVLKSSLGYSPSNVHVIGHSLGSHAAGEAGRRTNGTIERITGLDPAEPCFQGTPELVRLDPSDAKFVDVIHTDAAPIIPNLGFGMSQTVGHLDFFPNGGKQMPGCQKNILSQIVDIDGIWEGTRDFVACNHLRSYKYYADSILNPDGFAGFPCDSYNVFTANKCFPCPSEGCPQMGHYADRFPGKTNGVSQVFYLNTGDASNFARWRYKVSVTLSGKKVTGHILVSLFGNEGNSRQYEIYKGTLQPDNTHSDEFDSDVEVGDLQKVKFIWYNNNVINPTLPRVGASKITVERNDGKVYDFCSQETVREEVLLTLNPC

Beta-glucuronidase = Beta-glucuronidase (Escherichia coli (strain K12), UniProt P05804); assay: Inhibition of Escherichia coli beta-glucuronidase using 4-methylumbelliferyl-beta-D-glucuronide hydrate as substrate preincubated for 5 mins followed by substrate addition and measured after 30 mins by fluorescence method
Rattus norvegicus [3] = species: Rattus norvegicus; assay: Inhibition of rat intestinal alpha-glucosidase at 1 mg/ml using pNPG as substrate preincubated for 3 mins followed by substrate addition and measured after 30 mins relative to control
Pancreatic alpha-amylase [4] = molecular target: T2, Pancreatic alpha-amylase (Sus scrofa, UniProt P00690); assay: Inhibition of porcine pancreatic alpha-amylase at 0.1 to 0.5 mg/ml using potato starch as substrate preincubated for 5 mins followed by substrate addition and measured after 3 mins by DNS method; settings: pig, 0.05 h
T2 sequence (P00690 whole entry): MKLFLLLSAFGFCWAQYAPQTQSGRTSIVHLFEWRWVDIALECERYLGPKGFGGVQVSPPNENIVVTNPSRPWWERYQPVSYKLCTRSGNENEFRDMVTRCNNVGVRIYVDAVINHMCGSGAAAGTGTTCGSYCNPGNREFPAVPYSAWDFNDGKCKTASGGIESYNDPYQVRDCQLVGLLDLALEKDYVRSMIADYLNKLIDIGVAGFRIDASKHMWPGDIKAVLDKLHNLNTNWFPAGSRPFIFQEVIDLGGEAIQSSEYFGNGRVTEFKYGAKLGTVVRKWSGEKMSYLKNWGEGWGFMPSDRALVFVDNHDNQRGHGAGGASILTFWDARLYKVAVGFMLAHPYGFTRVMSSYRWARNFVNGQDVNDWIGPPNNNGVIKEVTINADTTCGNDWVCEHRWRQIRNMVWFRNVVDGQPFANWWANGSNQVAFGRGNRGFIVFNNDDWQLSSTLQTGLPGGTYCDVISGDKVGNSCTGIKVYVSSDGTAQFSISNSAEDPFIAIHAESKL

[5] = molecular target: Beta-glucuronidase (Escherichia coli (strain K12)) (UniProt P05804); assay: Potency index, ratio of DSA IC50 to compound IC50 for inhibition of Escherichia coli beta-glucuronidase using 4-methylumbelliferyl-beta-D-glucuronide hydrate as substrate preincubated for 5 mins followed by substrate addition and measured after 30 mins by fluorescence method
[6] = molecular target: T1, Pancreatic triacylglycerol lipase; assay: Inhibition of porcine pancreatic lipase up to 1 mg/ml using 4-MU oleate as substrate incubated for 30 min by fluorescence method relative to control; settings: pig, 0.5 h
[7] = molecular target: T1, Pancreatic triacylglycerol lipase; assay: Inhibition of porcine pancreatic lipase at 5 ug/ml using 4-MU oleate as substrate incubated for 30 min by fluorescence method relative to control; settings: pig, 0.5 h
Pancreatic alpha-amylase [8] = molecular target: T2, Pancreatic alpha-amylase; assay: Inhibition of porcine pancreatic alpha-amylase at 1 mg/ml using potato starch as substrate preincubated for 5 mins followed by substrate addition and measured after 3 mins by DNS method relative to control; settings: pig, 0.05 h
Rattus norvegicus [9] = species: Rattus norvegicus; assay: Inhibition of rat intestinal alpha-glucosidase at 0.02 mM using pNPG as substrate preincubated for 3 mins followed by substrate addition and measured after 30 mins relative to control
Pancreatic alpha-amylase [10] = molecular target: T2, Pancreatic alpha-amylase; assay: Inhibition of porcine pancreatic alpha-amylase at 10 ug/ml using potato starch as substrate preincubated for 5 mins followed by substrate addition and measured after 3 mins by DNS method relative to control; settings: pig, 0.05 h

Sequence of Beta-glucuronidase (Escherichia coli (strain K12)) (P05804 whole entry, looked up): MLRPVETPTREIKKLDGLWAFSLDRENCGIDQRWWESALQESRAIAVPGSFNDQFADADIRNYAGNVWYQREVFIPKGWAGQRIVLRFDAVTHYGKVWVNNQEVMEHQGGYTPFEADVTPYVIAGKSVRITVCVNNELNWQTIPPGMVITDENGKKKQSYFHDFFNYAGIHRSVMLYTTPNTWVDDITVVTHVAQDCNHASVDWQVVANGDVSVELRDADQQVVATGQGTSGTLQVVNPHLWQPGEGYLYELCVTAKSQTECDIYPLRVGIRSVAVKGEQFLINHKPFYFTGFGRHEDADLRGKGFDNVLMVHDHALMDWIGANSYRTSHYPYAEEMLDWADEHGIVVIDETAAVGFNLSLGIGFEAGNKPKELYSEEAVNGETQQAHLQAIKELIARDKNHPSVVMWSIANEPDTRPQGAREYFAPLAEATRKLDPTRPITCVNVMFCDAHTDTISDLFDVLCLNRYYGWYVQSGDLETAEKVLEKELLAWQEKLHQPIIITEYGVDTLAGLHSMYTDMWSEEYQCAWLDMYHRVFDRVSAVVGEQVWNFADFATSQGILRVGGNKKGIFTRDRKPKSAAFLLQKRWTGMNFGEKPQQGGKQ
Sequence of Beta-glucuronidase (P05804 whole entry): as the sequence (P05804 whole entry, looked up) above

| inhibition (Rattus norvegicus [1]) | inhibition (INH) [2] | pIC50 (Beta-glucuronidase) | inhibition (Rattus norvegicus [3]) | inhibition (INH) (Pancreatic alpha-amylase [4]) | Ratio IC50 [5] | inhibition (INH) [6] | inhibition (INH) (Pancreatic alpha-amylase [8]) | SMILES | inhibition (INH) [7] | inhibition (Rattus norvegicus [9]) | inhibition (INH) (Pancreatic alpha-amylase [10]) |
| --- | --- | --- | --- | --- | --- | --- | --- | --- | --- | --- | --- |
| inactive | < 56% | 5.16 | 12% | Not Active | 3.5 to 39.5 | 85 to 93% | – | OC/C=C/c1ccc2c(c1)O[C@H](c1ccc3c(c1)O[C@@H](c1ccc(O)c(O)c1)[C@H](CO)O3)[C@@H](CO)O2 | – | – | – |
| – | – | – | – | – | – | – | – | CCCCCCCCCCC[C@@H](C[C@@H]1OC(=O)[C@H]1CCCCCC)OC(=O)[C@H](CC(C)C)NC=O [ORLISTAT] | 96% | – | – |
| inactive | < 56% | 6.21 | inactive | Not Active | 3.5 to 39.5 | 85 to 93% | 21% | OC[C@H]1Oc2ccc([C@@H]3OC[C@@H]4[C@H]3CO[C@H]4c3ccc4c(c3)O[C@H](c3ccc(O)c(O)c3)[C@@H](CO)O4)cc2O[C@@H]1c1ccc(O)c(O)c1 | – | – | – |
| – | – | – | – | – | – | – | – | C[C@H]1O[C@H](O[C@H]2[C@H](O)[C@@H](O)[C@@H](O[C@H]3[C@H](O)[C@@H](O)C(O)O[C@@H]3CO)O[C@@H]2CO)[C@H](O)[C@@H](O)[C@@H]1N[C@H]1C=C(CO)[C@@H](O)[C@H](O)[C@H]1O (stereo not given in full) [ACARBOSE] | – | 80% | 94% |
| inactive | < 56% | 6.02 | inactive | Not Active | 3.5 to 39.5 | 85 to 93% | 21% | OC[C@@H]1Oc2cc([C@@H]3OC[C@@H]4[C@H]3CO[C@H]4c3ccc4c(c3)O[C@@H](CO)[C@H](c3ccc(O)c(O)c3)O4)ccc2O[C@H]1c1ccc(O)c(O)c1 | – | – | – |
| inactive | < 56% | 5.40 | inactive | Not Active | 3.5 to 39.5 | 85 to 93% | 21% | OC/C=C/c1ccc2c(c1)O[C@@H](CO)[C@H](c1ccc3c(c1)O[C@H](CO)[C@@H](c1ccc(O)c(O)c1)O3)O2 | – | – | – |

| SMILES | inhibition (Rattus norvegicus [1]) | inhibition (INH) [2] | pIC50 (Beta-glucuronidase) | inhibition (Rattus norvegicus [3]) | inhibition (INH) (Pancreatic alpha-amylase [4]) | Ratio IC50 [5] | inhibition (INH) [6] | inhibition (INH) (Pancreatic alpha-amylase [8]) | inhibition (INH) [7] | inhibition (Rattus norvegicus [9]) | inhibition (INH) (Pancreatic alpha-amylase [10]) |
| --- | --- | --- | --- | --- | --- | --- | --- | --- | --- | --- | --- |
| O=C(O)[C@@H](O)[C@H]1OC(=O)[C@H](O)[C@H]1O | – | – | 4.61 | – | – | – | – | – | – | – | – |
